# Experiment: Decrease of fragrance compound concentration during the indole inhibition test (GCMS)
# Type: physicochemical
# Set-up: key: Y = Yes
# Settings: 24 hours in fresh human urine, room temperature; for Decrease in Fragrance Compounds after 24 hours (%): 0-30%: category 0-30% decrease; for Decrease in Fragrance Compounds after 24 hours (%): >60%: category >60% decrease
# Procedure: Advantageously, the appropriate fragrance compounds may be selected by using the following preferred indole inhibition test which comprises the following steps: • A) 0.02 g of fragrance and 0.02 g of Tergitol 15-s-12 was added to 7 g of fresh human urine in a 20 ml Headspace vial sealed with a PTFE faced septum and well mixed for 10 minutes using a magnetic stirrer. For a blank to test the suitability of a batch of fresh human urine, 7 g of human urine was used with 0.02 g of demineralised water and 0.02 g of Tergitol 15-s-12. If a control was required, to test the efficacy of product base for example, the control contained 7 g of human urine to which was added 0.02 g of fragrance, minus the active agents and 0.02 g of Tergitol 15-s-12. • B) The vials are placed in an autosampler tray at room temperature. • C) At different times the headspace in the vials is sampled for 5 minutes at 35° C. by an SPME fibre (PDMS fibre ex Supelco) after 10 minutes at 35° C. (incubation time). • D) The SPME fibre is desorbed 1 minute at 265° C. from a CTC Combipal autosampler and injected in splitless mode onto an Agilent GC-MS 5973N with a HP-INNOWAX column (30 m×0.25×0.25). (Oven conditions: 50° C. during 2 min-to 250° C. at 10° C./min-250° C. during 5 minutes). • E) Under the above GC-MS conditions, indole has a retention time of 19.14 minutes, and can be recognised by its characteristic ions (m/z 117, m/z 89 and m/z 90). • F) In the range of values determined in this work, the area of the indole peak (117) is linearly related to the actual concentration in the vial, and was used without further correction to establish the concentration of indole in “Active” and “Blank” and if present any “Control” fragrances. • G) The material is deemed to be active if the indole concentration in the test sample is below 0.01 ppm (wt/wt) after 24 hours incubation at room temperature and the indole in the blank samples is between 0.25 ppm (wt/wt) and 1.25 ppm (wt/wt) indole after 24 hours storage at room temperature. • H) The change in the active ingredient concentration is determined by comparing measurements at the start of the experiment and after 24 hours using appropriate characteristic ions.
# This can be determined by measuring the fragrance concentration in the sample containing the test cocktail at the start and end of the indole inhibition test as described in step I of the test. If the difference between the measurements is less than 60% preferably less than 30% then the material is considered as not to have changed sufficiently to alter the fragrance note and to be particularly preferred.
# A sample of fresh human urine is divided into equal portions and a fragrance containing one or more of the effective materials was added as described in the Indole Inhibition Test. […] The samples were stored and after 24 hours the indole content and fragrance active content is measured by gas chromatography with mass spectrometric (GCMS) detection. Those formulations containing active ingredients prevented the formation of indole while both the unfragranced and the alcohol containing control samples had much greater quantities of indole present. Also for the active compounds a GCMS measurement indicated the extent to which the compound was itself consumed as part of the process. In table 2 the decrease in fragrance components has been classified into 3 categories and the letter Y indicates the appropriate category for the compounds which have been measured. The absence of a letter Y in any category means that the decrease has not been measured for that compound.
Compound,Decrease in Fragrance Compounds after 24 hours (%): 0-30%,other results
CC(C)=CCCC(C)=CC=O [Citral],Y,–
O=Cc1ccccc1 [Benzaldehyde],Y,–
CCCCCCCCCCC=O [Aldehyde C11],–,Decrease in Fragrance Compounds after 24 hours (%): >60%: Y
O=C/C=C/c1ccccc1 [Cinnamic aldehyde],Y,–
CCc1occc(=O)c1O [Veltol Plus],–,Decrease in Fragrance Compounds after 24 hours (%): >60%: Y
C=C(C)C1CC=C(C=O)CC1 (stereo not shown) [Perilla aldehyde],Y,–
CCC/C=C/C=O [Trans 2 hexenal],–,Decrease in Fragrance Compounds after 24 hours (%): 0-60% (category 0-60% decrease): Y
